# Legend:
# Assay in all cases: relative viability (nuclei count vs DMSO), 5 days (fraction); higher = more cells survive
# [1] = test system: LXF-289
# How it was run: (§1)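 Values are medians from duplicate plates. Each reflects relative viability, defined as the nuclei count of treated wells over that of vehicle wells. Lung cancer cell lines in 1536-well plates were pin-tool dosed one day after seeding with one drug alone or with a fixed anchor-drug dose plus five library-drug doses (not always all listed) in √10 steps, then fixed, stained and imaged at 4× after 5 days.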
# [2] = test system: HCC-44
# How it was run: as §1
# [3] = test system: NCI-H1755
# How it was run: as §1
# [4] = test system: HCC-827
# How it was run: as §1
# [5] = test system: NCI-H1792
# How it was run: as §1
# [6] = test system: SK-LU-1
# How it was run: as §1
# [7] = test system: NCI-H1666
# How it was run: as §1
# [8] = test system: NCI-H3122
# How it was run: as §1
# [9] = test system: NCI-H2347
# How it was run: as §1
# [10] = test system: LU99A
# How it was run: as §1
# [11] = test system: NCI-H520
# How it was run: as §1
# [12] = test system: ChaGo-K-1
# How it was run: as §1
# [13] = test system: NCI-H2126
# How it was run: as §1
# [14] = test system: NCI-H1944
# How it was run: as §1
# [15] = test system: NCI-H358
# How it was run: as §1
# [16] = test system: CAL-12T
# How it was run: as §1
# [17] = test system: ABC-1
# How it was run: as §1
# [18] = test system: RERF-LC-KJ
# How it was run: as §1
# [19] = test system: LCLC-103H
# How it was run: as §1
# [20] = test system: NCI-H322M
# How it was run: as §1
compound,measurement,setting,value
CN1CCN(CCOc2cc(OC3CCOCC3)c3c(Nc4c(Cl)ccc5c4OCO5)ncnc3c2)CC1 [Saracatinib] + C[C@@H](Oc1cc(-c2cnn(C3CCNCC3)c2)cnc1N)c1c(Cl)ccc(F)c1Cl [Crizotinib] (partner 1 µM),relative viability,[1]; first compound 0.02 µM,0.845
same,relative viability,[1]; first compound 0.2 µM,0.775
same,relative viability,[1]; first compound 0.6325 µM,0.847
same,relative viability,[1]; first compound 2 µM,0.892
same,relative viability,[2]; first compound 0.02 µM,0.859
same,relative viability,[2]; first compound 0.2 µM,0.738
same,relative viability,[2]; first compound 0.6325 µM,0.952
same,relative viability,[2]; first compound 2 µM,1.01
same,relative viability,[3]; first compound 0.02 µM,0.883
same,relative viability,[3]; first compound 0.2 µM,0.536
same,relative viability,[3]; first compound 0.6325 µM,0.779
same,relative viability,[3]; first compound 2 µM,0.662
same,relative viability,[4]; first compound 0.02 µM,0.943
same,relative viability,[4]; first compound 0.2 µM,0.452
same,relative viability,[4]; first compound 0.6325 µM,0.247
same,relative viability,[4]; first compound 2 µM,0.193
same,relative viability,[5]; first compound 0.02 µM,0.94
same,relative viability,[5]; first compound 0.2 µM,0.922
same,relative viability,[5]; first compound 0.6325 µM,1.15
same,relative viability,[5]; first compound 2 µM,0.684
same,relative viability,[6]; first compound 0.02 µM,0.774
same,relative viability,[6]; first compound 0.2 µM,0.646
same,relative viability,[6]; first compound 0.6325 µM,0.404
same,relative viability,[6]; first compound 2 µM,0.331
same,relative viability,[7]; first compound 0.02 µM,1.04
same,relative viability,[7]; first compound 0.2 µM,0.965
same,relative viability,[7]; first compound 0.6325 µM,1.18
same,relative viability,[7]; first compound 2 µM,0.926
same,relative viability,[8]; first compound 0.02 µM,0.28
same,relative viability,[8]; first compound 0.6325 µM,0.226
same,relative viability,[8]; first compound 2 µM,0.187
same,relative viability,[9]; first compound 0.02 µM,0.732
same,relative viability,[9]; first compound 0.2 µM,0.686
same,relative viability,[9]; first compound 0.6325 µM,1.03
same,relative viability,[9]; first compound 2 µM,0.486
same,relative viability,[10]; first compound 0.02 µM,0.664
same,relative viability,[10]; first compound 0.2 µM,0.377
same,relative viability,[10]; first compound 0.6325 µM,0.487
same,relative viability,[10]; first compound 2 µM,0.39
same,relative viability,[11]; first compound 0.02 µM,0.74
same,relative viability,[11]; first compound 0.2 µM,0.732
same,relative viability,[11]; first compound 0.6325 µM,0.531
same,relative viability,[11]; first compound 2 µM,0.37
same,relative viability,[12]; first compound 0.02 µM,1.08
same,relative viability,[12]; first compound 0.2 µM,0.906
same,relative viability,[12]; first compound 0.6325 µM,1.1
same,relative viability,[12]; first compound 2 µM,0.809
same,relative viability,[13]; first compound 0.02 µM,0.991
same,relative viability,[13]; first compound 0.2 µM,0.84
same,relative viability,[13]; first compound 0.6325 µM,1.02
same,relative viability,[13]; first compound 2 µM,0.894
same,relative viability,[14]; first compound 0.02 µM,1.11
same,relative viability,[14]; first compound 0.6325 µM,1.09
same,relative viability,[14]; first compound 2 µM,0.67
same,relative viability,[15]; first compound 0.02 µM,0.54
same,relative viability,[15]; first compound 0.2 µM,0.611
same,relative viability,[15]; first compound 0.6325 µM,0.376
same,relative viability,[15]; first compound 2 µM,0.251
same,relative viability,[16]; first compound 0.02 µM,0.649
same,relative viability,[16]; first compound 0.2 µM,0.522
same,relative viability,[16]; first compound 0.6325 µM,0.746
same,relative viability,[16]; first compound 2 µM,0.367
same,relative viability,[17]; first compound 0.02 µM,1.1
same,relative viability,[17]; first compound 0.2 µM,1.06
same,relative viability,[17]; first compound 0.6325 µM,0.918
same,relative viability,[17]; first compound 2 µM,0.705
same,relative viability,[18]; first compound 0.02 µM,0.81
same,relative viability,[18]; first compound 0.2 µM,0.833
same,relative viability,[18]; first compound 0.6325 µM,0.945
same,relative viability,[18]; first compound 2 µM,0.778
same,relative viability,[19]; first compound 0.02 µM,1.11
same,relative viability,[19]; first compound 0.2 µM,0.817
same,relative viability,[19]; first compound 0.6325 µM,1.13
same,relative viability,[19]; first compound 2 µM,0.976
same,relative viability,[20]; first compound 0.02 µM,0.971
same,relative viability,[20]; first compound 0.2 µM,0.831
same,relative viability,[20]; first compound 0.6325 µM,0.916
same,relative viability,[20]; first compound 2 µM,0.6

# From the supplement of paper PMC10307832
